Measurements reported in article PMC11628281, “A sulfonimide derivative of bezafibrate as a dual inhibitor of cyclooxygenase-2 and PPARα” (Frontiers in Pharmacology, 2024).

Molecular target: T1, cyclooxygenase (COX)-2 (Homo sapiens, UniProt P35354)
T1 construct: gene PTGS2
T1 sequence (P35354 18-604): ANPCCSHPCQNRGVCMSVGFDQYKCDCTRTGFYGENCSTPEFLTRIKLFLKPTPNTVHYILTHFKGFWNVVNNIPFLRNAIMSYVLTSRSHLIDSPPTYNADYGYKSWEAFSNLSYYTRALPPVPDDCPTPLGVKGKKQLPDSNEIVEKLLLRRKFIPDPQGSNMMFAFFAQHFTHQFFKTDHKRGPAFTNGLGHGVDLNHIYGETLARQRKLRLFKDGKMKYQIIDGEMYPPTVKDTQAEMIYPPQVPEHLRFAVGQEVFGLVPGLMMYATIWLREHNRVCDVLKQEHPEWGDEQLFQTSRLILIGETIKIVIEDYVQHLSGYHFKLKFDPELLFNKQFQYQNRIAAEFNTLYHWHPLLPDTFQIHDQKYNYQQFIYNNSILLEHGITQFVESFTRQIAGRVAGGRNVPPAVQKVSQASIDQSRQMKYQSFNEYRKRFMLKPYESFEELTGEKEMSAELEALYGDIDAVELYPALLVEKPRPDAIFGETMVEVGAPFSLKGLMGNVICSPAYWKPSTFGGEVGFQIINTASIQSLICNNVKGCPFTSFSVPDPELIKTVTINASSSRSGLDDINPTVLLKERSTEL
Experiment: LPS-stimulated human whole blood PGE2 (RIA); also HCA7 cells (COX-2 only), IC50 […], with washout

Q: For `CC(C)(Oc1ccc(CCNC(=O)c2ccc(Cl)cc2)cc1)C(=O)NS(=O)(=O)c1ccccc1` [compound 6, AA520], which IC50 is on record?
A: Its IC50 is 0.1 µM.
